Assay results from publication PMC11480411, “Mucosal sugars delineate pyrazine vs pyrazinone autoinducer signaling in Klebsiella oxytoca” (Nature Communications, 2024).

Tests used:
Experiment in all cases: PRESTO-Tango GPCR screen
Assay type in all cases: cell-based
Details in all cases: 100 µM
TAAR5 = target: T1, TAAR5 (Homo sapiens, UniProt O14804)
T1 construct: purchased PRESTO-Tango GPCR kit (Roth lab / Addgene)
Summary of the method: (§1)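 β-Arrestin recruitment Tango format: HTLA cells, PEI transfection of receptor-Tango construct, 16-24 h; test compound 100 μM final, 20 h; Bright-Glo luminescence; RLU/PBS control RLU = fold activation. Dose-response curves run from 10^−4 M to 10^−15 M.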

GPR114 = target: T2, GPR114 (Homo sapiens, UniProt Q8IZF4)
T2 construct: purchased PRESTO-Tango GPCR kit (Roth lab / Addgene)
Summary of the method: as §1

GPR32 = target: T3, GPR32 (Homo sapiens, UniProt O75388)
T3 construct: purchased PRESTO-Tango GPCR kit (Roth lab / Addgene)
Summary of the method: as §1

MTNR1A = target: T4, MTNR1A (Homo sapiens, UniProt P48039)
T4 construct: purchased PRESTO-Tango GPCR kit (Roth lab / Addgene)
Summary of the method: as §1

GPR174 = target: T5, GPR174 (Homo sapiens, UniProt Q9BXC1)
T5 construct: purchased PRESTO-Tango GPCR kit (Roth lab / Addgene)
Summary of the method: as §1

GPR45 = target: T6, GPR45 (Homo sapiens, UniProt Q9Y5Y3)
T6 construct: purchased PRESTO-Tango GPCR kit (Roth lab / Addgene)
Summary of the method: as §1

NPY4R = target: T7, NPY4R (Homo sapiens, UniProt P50391)
T7 construct: purchased PRESTO-Tango GPCR kit (Roth lab / Addgene)
Summary of the method: as §1

MAS1L = target: T8, MAS1L (Homo sapiens, UniProt P35410)
T8 construct: purchased PRESTO-Tango GPCR kit (Roth lab / Addgene)
Summary of the method: as §1

DRD2 = target: T9, DRD2 (Homo sapiens, UniProt P14416)
T9 construct: purchased PRESTO-Tango GPCR kit (Roth lab / Addgene)
Summary of the method: as §1

ADCYAP1R1 = target: T10, ADCYAP1R1 (Homo sapiens, UniProt P41586)
T10 construct: purchased PRESTO-Tango GPCR kit (Roth lab / Addgene)
Summary of the method: as §1

CCR8 = target: T11, CCR8 (Homo sapiens, UniProt P51685)
T11 construct: purchased PRESTO-Tango GPCR kit (Roth lab / Addgene)
Summary of the method: as §1

PTGFR = target: T12, PTGFR (Homo sapiens, UniProt P43088)
T12 construct: purchased PRESTO-Tango GPCR kit (Roth lab / Addgene)
Summary of the method: as §1

GRM5 = target: T13, GRM5 (Homo sapiens, UniProt P41594)
T13 construct: purchased PRESTO-Tango GPCR kit (Roth lab / Addgene)
Summary of the method: as §1

MRGPRE = target: T14, MRGPRE (Homo sapiens, UniProt Q86SM8)
T14 construct: purchased PRESTO-Tango GPCR kit (Roth lab / Addgene)
Summary of the method: as §1

GRM4 = target: T15, GRM4 (Homo sapiens, UniProt Q14833)
T15 construct: purchased PRESTO-Tango GPCR kit (Roth lab / Addgene)
Summary of the method: as §1

HTR1B = target: T16, HTR1B (Homo sapiens, UniProt P28222)
T16 construct: purchased PRESTO-Tango GPCR kit (Roth lab / Addgene)
Summary of the method: as §1

GRPR = target: T17, GRPR (Homo sapiens, UniProt P30550)
T17 construct: purchased PRESTO-Tango GPCR kit (Roth lab / Addgene)
Summary of the method: as §1

OPRM1 = target: T18, OPRM1 (Homo sapiens, UniProt P35372)
T18 construct: purchased PRESTO-Tango GPCR kit (Roth lab / Addgene)
Summary of the method: as §1

LPAR6 = target: T19, LPAR6 (Homo sapiens, UniProt P43657)
T19 construct: purchased PRESTO-Tango GPCR kit (Roth lab / Addgene)
Summary of the method: as §1

GPBA = target: T20, GPBA (Homo sapiens, UniProt Q8TDU6)
T20 construct: purchased PRESTO-Tango GPCR kit (Roth lab / Addgene)
Summary of the method: as §1

GPR124 = target: T21, GPR124 (Homo sapiens, UniProt Q96PE1)
T21 construct: purchased PRESTO-Tango GPCR kit (Roth lab / Addgene)
Summary of the method: as §1

OXER1 = target: T22, OXER1 (Homo sapiens, UniProt Q8TDS5)
T22 construct: purchased PRESTO-Tango GPCR kit (Roth lab / Addgene)
Summary of the method: as §1

GPR77 = target: T23, GPR77 (Homo sapiens, UniProt Q9P296)
T23 construct: purchased PRESTO-Tango GPCR kit (Roth lab / Addgene)
Summary of the method: as §1

GPR156 = target: T24, GPR156 (Homo sapiens, UniProt Q8NFN8)
T24 construct: purchased PRESTO-Tango GPCR kit (Roth lab / Addgene)
Summary of the method: as §1

CCR2 = target: T25, CCR2 (Homo sapiens, UniProt P41597)
T25 construct: purchased PRESTO-Tango GPCR kit (Roth lab / Addgene)
Summary of the method: as §1

GPR183 = target: T26, GPR183 (Homo sapiens, UniProt P32249)
T26 construct: purchased PRESTO-Tango GPCR kit (Roth lab / Addgene)
Summary of the method: as §1

GPR31 = target: T27, GPR31 (Homo sapiens, UniProt O00270)
T27 construct: purchased PRESTO-Tango GPCR kit (Roth lab / Addgene)
Summary of the method: as §1

UTS2R = target: T28, UTS2R (Homo sapiens, UniProt Q9UKP6)
T28 construct: purchased PRESTO-Tango GPCR kit (Roth lab / Addgene)
Summary of the method: as §1

PTGER3 = target: T29, PTGER3 (Homo sapiens, UniProt P43115)
T29 construct: purchased PRESTO-Tango GPCR kit (Roth lab / Addgene)
Summary of the method: as §1

GPR101 = target: T30, GPR101 (Homo sapiens, UniProt Q96P66)
T30 construct: purchased PRESTO-Tango GPCR kit (Roth lab / Addgene)
Summary of the method: as §1

CALCRL = target: T31, CALCRL (Homo sapiens, UniProt Q16602)
T31 construct: purchased PRESTO-Tango GPCR kit (Roth lab / Addgene)
Summary of the method: as §1

GPR12 = target: T32, GPR12 (Homo sapiens, UniProt P47775)
T32 construct: purchased PRESTO-Tango GPCR kit (Roth lab / Addgene)
Summary of the method: as §1

ADORA3 = target: T33, ADORA3 (Homo sapiens, UniProt P0DMS8)
T33 construct: purchased PRESTO-Tango GPCR kit (Roth lab / Addgene)
Summary of the method: as §1

CXCR3 = target: T34, CXCR3 (Homo sapiens, UniProt P49682)
T34 construct: purchased PRESTO-Tango GPCR kit (Roth lab / Addgene)
Summary of the method: as §1

GPR182 = target: T35, GPR182 (Homo sapiens, UniProt O15218)
T35 construct: purchased PRESTO-Tango GPCR kit (Roth lab / Addgene)
Summary of the method: as §1

T18 sequence (P35372 whole entry): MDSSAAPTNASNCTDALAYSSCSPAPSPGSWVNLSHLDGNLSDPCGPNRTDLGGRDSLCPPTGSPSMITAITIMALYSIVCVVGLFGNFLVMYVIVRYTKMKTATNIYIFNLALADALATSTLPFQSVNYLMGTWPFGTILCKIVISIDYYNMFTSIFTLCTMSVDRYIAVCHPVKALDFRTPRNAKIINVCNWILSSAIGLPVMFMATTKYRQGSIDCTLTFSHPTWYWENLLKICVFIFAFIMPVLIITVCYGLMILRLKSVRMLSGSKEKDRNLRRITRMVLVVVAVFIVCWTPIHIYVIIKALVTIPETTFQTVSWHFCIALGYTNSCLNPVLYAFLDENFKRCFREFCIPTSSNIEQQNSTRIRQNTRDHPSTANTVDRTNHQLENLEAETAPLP
T34 sequence (P49682 whole entry): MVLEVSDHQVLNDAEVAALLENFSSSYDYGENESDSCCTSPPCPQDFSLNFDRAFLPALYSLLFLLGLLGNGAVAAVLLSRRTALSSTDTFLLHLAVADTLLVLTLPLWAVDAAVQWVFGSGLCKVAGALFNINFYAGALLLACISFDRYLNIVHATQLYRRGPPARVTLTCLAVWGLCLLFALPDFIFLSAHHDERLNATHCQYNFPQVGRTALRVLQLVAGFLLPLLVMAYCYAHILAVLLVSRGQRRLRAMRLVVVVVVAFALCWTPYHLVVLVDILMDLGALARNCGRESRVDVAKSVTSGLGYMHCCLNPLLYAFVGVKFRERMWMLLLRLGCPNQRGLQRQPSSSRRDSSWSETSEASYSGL
T8 sequence (P35410 whole entry): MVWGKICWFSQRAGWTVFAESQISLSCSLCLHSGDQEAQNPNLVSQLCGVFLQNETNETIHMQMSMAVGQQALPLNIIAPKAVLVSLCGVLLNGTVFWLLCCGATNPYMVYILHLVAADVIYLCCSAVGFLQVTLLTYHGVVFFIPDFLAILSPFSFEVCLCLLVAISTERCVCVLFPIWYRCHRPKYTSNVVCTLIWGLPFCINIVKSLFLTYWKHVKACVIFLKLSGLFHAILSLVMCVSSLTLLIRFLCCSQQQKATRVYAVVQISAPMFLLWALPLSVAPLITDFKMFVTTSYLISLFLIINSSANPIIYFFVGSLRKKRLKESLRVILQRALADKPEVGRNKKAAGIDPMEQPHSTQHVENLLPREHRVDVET
T9 sequence (P14416 whole entry): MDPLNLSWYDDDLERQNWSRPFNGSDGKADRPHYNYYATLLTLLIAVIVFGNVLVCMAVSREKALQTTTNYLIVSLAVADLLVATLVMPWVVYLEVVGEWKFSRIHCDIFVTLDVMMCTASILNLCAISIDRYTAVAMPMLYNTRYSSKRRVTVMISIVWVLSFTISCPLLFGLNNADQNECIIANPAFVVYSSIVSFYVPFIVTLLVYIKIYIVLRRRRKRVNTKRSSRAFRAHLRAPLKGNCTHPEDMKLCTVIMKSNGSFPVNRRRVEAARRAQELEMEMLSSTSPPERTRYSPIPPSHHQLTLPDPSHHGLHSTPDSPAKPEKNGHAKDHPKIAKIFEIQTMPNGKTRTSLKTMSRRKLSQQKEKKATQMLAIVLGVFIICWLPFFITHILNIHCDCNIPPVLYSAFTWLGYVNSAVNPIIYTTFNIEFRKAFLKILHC
T25 sequence (P41597 whole entry): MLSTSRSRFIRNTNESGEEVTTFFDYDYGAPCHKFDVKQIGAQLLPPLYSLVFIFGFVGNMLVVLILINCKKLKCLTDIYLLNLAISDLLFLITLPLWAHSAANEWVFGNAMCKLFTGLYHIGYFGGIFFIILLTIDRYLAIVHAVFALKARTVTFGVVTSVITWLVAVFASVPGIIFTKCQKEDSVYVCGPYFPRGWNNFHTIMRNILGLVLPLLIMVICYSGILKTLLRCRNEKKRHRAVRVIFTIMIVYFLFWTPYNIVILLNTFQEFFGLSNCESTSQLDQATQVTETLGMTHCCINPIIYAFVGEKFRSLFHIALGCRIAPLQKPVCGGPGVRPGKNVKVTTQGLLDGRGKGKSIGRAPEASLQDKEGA
T24 sequence (Q8NFN8 whole entry): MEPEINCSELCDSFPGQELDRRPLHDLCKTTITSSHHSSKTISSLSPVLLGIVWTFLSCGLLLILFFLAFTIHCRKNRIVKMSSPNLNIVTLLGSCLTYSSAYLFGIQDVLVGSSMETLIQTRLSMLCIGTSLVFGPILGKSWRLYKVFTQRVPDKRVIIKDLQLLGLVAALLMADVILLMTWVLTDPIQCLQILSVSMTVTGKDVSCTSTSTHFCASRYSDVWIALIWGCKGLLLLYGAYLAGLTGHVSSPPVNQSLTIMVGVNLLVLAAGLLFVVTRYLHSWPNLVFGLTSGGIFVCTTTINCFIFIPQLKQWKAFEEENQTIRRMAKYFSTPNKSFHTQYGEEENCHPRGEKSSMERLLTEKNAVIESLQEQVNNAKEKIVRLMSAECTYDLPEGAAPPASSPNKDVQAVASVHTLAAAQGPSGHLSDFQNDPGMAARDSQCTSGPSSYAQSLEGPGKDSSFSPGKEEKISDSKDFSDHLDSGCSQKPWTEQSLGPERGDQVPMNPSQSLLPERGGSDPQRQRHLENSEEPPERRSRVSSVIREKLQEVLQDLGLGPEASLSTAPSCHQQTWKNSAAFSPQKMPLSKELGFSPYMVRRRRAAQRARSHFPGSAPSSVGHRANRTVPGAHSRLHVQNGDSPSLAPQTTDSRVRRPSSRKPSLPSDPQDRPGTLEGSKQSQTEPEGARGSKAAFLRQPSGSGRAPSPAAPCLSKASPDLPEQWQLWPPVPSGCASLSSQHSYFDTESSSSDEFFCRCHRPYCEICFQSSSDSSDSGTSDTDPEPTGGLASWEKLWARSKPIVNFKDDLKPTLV
T35 sequence (O15218 whole entry): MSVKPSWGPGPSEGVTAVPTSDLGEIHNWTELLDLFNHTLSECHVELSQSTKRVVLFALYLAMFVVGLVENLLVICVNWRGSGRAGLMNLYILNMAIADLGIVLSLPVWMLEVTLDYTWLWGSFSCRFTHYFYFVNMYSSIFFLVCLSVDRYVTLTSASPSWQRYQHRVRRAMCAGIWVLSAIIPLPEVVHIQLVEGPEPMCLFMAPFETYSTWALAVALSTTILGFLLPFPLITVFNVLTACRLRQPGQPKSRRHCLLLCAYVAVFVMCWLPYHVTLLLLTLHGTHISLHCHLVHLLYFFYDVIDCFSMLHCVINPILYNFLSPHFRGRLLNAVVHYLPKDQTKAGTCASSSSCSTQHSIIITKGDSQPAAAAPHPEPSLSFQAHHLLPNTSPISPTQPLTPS
T26 sequence (P32249 whole entry): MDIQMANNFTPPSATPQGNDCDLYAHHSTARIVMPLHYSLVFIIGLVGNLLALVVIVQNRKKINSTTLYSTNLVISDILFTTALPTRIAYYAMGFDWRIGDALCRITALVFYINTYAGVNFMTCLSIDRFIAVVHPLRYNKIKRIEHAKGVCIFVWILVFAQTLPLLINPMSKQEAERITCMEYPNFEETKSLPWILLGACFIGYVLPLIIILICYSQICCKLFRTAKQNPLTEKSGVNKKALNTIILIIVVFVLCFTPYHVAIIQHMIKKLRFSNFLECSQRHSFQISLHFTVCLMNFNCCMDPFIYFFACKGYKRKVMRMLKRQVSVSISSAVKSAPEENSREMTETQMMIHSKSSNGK
T5 sequence (Q9BXC1 whole entry): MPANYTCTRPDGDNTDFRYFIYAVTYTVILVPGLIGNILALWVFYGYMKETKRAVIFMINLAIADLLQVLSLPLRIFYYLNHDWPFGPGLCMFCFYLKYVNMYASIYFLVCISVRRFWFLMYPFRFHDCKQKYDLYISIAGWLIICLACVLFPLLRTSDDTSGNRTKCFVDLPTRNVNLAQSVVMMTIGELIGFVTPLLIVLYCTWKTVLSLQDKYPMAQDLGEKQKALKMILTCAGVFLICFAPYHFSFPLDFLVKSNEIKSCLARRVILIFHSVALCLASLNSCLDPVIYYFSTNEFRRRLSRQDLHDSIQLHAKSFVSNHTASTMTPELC
T2 sequence (Q8IZF4 22-528): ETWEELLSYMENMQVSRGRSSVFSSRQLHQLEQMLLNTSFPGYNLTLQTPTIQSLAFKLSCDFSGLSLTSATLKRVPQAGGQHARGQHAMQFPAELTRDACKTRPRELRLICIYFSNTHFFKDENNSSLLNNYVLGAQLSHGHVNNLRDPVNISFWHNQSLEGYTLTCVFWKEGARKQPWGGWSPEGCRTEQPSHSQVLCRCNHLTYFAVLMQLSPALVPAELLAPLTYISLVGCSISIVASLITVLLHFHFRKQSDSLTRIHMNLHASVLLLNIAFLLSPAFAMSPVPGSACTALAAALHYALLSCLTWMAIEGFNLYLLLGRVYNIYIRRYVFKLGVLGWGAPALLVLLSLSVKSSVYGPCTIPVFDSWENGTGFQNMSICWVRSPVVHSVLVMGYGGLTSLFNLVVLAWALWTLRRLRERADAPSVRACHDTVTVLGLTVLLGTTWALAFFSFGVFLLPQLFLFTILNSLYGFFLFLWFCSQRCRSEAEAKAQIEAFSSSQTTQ
T19 sequence (P43657 whole entry): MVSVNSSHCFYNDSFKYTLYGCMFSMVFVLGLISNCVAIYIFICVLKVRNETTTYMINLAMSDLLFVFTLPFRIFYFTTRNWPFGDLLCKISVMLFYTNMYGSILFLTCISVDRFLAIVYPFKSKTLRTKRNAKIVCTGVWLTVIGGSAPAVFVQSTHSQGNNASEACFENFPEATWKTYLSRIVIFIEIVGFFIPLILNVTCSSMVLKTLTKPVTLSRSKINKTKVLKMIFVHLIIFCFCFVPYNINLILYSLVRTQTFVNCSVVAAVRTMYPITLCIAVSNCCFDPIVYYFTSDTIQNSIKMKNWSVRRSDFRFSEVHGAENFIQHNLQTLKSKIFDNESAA

| Structure (SMILES) | GPCR activation (heatmap value) (TAAR5) | GPCR activation (heatmap value) (GPR114) | GPCR activation (heatmap value) (GPR32) | GPCR activation (heatmap value) (MTNR1A) | GPCR activation (heatmap value) (GPR174) | GPCR activation (heatmap value) (GPR45) | GPCR activation (heatmap value) (NPY4R) | GPCR activation (heatmap value) (MAS1L) | GPCR activation (heatmap value) (DRD2) | GPCR activation (heatmap value) (ADCYAP1R1) | GPCR activation (heatmap value) (CCR8) | GPCR activation (heatmap value) (PTGFR) | GPCR activation (heatmap value) (GRM5) | GPCR activation (heatmap value) (MRGPRE) | GPCR activation (heatmap value) (GRM4) | GPCR activation (heatmap value) (HTR1B) | GPCR activation (heatmap value) (GRPR) | GPCR activation (heatmap value) (OPRM1) | GPCR activation (heatmap value) (LPAR6) | GPCR activation (heatmap value) (GPBA) | other results |
| --- | --- | --- | --- | --- | --- | --- | --- | --- | --- | --- | --- | --- | --- | --- | --- | --- | --- | --- | --- | --- | --- |
| CC(C)Cc1ncc(CCCCNC(=N)N)[nH]c1=O [3-Homo] | -0.4757 | 0.07141 | -0.1389 | -0.06354 | 0.4742 | -0.6461 | 1.0914 | 0.1505 | -0.9836 | 0.1231 | -1.739 | 0.3992 | -0.9141 | 0.8539 | -0.1574 | -0.02426 | -0.6902 | 0.127 | 0.3664 | -0.06085 | GPCR activation (heatmap value) (GPR124): -0.5918; GPCR activation (heatmap value) (OXER1): 0.0005851; GPCR activation (heatmap value) (GPR77): 0.08307; GPCR activation (heatmap value) (GPR156): 0.2712; GPCR activation (heatmap value) (CCR2): -0.2415; GPCR activation (heatmap value) (GPR183): -0.6232; GPCR activation (heatmap value) (GPR31): 0.09636; GPCR activation (heatmap value) (UTS2R): -1.423; GPCR activation (heatmap value) (PTGER3): -1.204; GPCR activation (heatmap value) (GPR101): -0.2435; GPCR activation (heatmap value) (CALCRL): 1.281; GPCR activation (heatmap value) (GPR12): 0.07278; GPCR activation (heatmap value) (ADORA3): -0.404; GPCR activation (heatmap value) (CXCR3): 0.846; GPCR activation (heatmap value) (GPR182): -0.244 |
| CC(C)Cc1ncc(CCCNC(=N)N)[nH]c1=O [compound 3] | -0.8641 | 0.003235 | 0.07937 | 0.3857 | 0.3321 | 0.4781 | 0.793 | -0.3942 | 0.05842 | 0.214 | -0.8888 | 0.901 | 0.02679 | 1.264 | -0.2331 | 0.5899 | 0.1678 | 1.469 | 0.5638 | -0.136 | GPCR activation (heatmap value) (GPR124): 0.8185; GPCR activation (heatmap value) (OXER1): -0.9579; GPCR activation (heatmap value) (GPR77): 0.5685; GPCR activation (heatmap value) (GPR156): 0.1542; GPCR activation (heatmap value) (CCR2): 0.059; GPCR activation (heatmap value) (GPR183): -0.9955; GPCR activation (heatmap value) (GPR31): 0.1606; GPCR activation (heatmap value) (UTS2R): 0.9484; GPCR activation (heatmap value) (PTGER3): 0.03461; GPCR activation (heatmap value) (GPR101): 0.4147; GPCR activation (heatmap value) (CALCRL): -0.1816; GPCR activation (heatmap value) (GPR12): 0.5588; GPCR activation (heatmap value) (ADORA3): -0.3342; GPCR activation (heatmap value) (CXCR3): 0.3957; GPCR activation (heatmap value) (GPR182): -0.4224 |
